In patent US9957253B2, “Triaminopyrimidine compounds useful for preventing or treating malaria” (MMV MEDICINES FOR MALARIA VENTURE, priority 2014, dated 2018):

Legend:
[1] = Pharmacokinetics in the blood of infected Pf/SCID mice; type: in vivo; settings: 40 mg/kg
Method: Pharmacokinetics in the Blood of Infected Pf/SCID Mice:
Peripheral blood samples (25 μl) were taken at different times (0.25, 0.5, 1, 2, 4, 6, 8 and 23 hours), mixed with 25 µl of H2O mili Q and immediately frozen on dry ice. The frozen samples were stored at −80° C. until analysis. Vehicle-treated mice experienced the same blood-sampling regimen. Blood samples were processed by liquid-liquid extraction by mixing 10 μl diluted blood with 180 μl AcN:MeOH (80:20; v:v) mixture. Quantitative analysis by LC/MSMS was performed using UPLC (Waters) and Sciex API4000. The lower limit of quantification (LLOQ) in this assay was 0.005 μg/ml.

[2] = system: P. falciparum field isolates; assay: Ex vivo drug susceptibility (schizont maturation) of P. falciparum field isolates; type: cell-based; settings: Plasmodium falciparum; Plasmodium field isolates, ex vivo; read-out: P. falciparum IC50
Method: (§1) Further, compounds of the invention (Examples 2 and 13) were also tested against field isolates of falciparum and vivax malaria, along with three control antimalarials as described in the protocol below.
(§2) Ex Vivo Activity of Examples 2 and 13 Against Drug Resistant P. falciparum and P. Vivax Field Isolates
(§3) Standard antimalarial drugs chloroquine (CQ), amodiaquine (AQ), piperaquine (PIP), mefloquine (MFQ), and artesunate (AS) and compounds of the invention were prepared as 1 mg/mL stock solutions in H2O or dimethyl sulfoxide (DMSO) according to the manufacturers' instructions. Drug plates were pre-dosed by diluting the compounds in 50% Methanol followed by lyophilisation and stored at 4° C.
(§4) Plasmodium isolates were collected from patients attending malaria clinics in Timika (Papua, Indonesia), a region endemic for multi-drug-resistant strains of P. vivax and P. falciparum. Patients with symptomatic malaria presenting to an outpatient facility were recruited into the study if singly infected with P. falciparum or P. vivax, with a parasitaemia of between 2,000 μl-1 and 80,000 μl-1, and the majority (>80%) of parasites at ring stage of development. Venous blood (5 mL) was collected by venipuncture and after removal of host white blood cells by using cellulose (Sigma-Aldrich, Australia) filtration, packed infected red blood cells (iRBCs) were used for the ex vivo drug susceptibility assay.
(§5) Drug susceptibility of P. vivax and P. falciparum isolates was measured using a protocol modified from the WHO microtest as described previously (Marfurt et al., 2011, Antimicrob Agents Chemother., 55(9):4461). Two hundred μL of a 2% haematocrit Blood Media Mixture (BMM), consisting of RPMI 1640 medium plus 10% AB+ human serum (P. falciparum) or McCoy's 5 A medium plus 20% AB+ human serum (P. vivax), was added to each well of pre-dosed drug plates containing 11 serial concentrations (2-fold dilutions) of the antimalarials (maximum concentration shown in brackets) CQ (2,992 nM), AQ (158 nM), PIP (1,029 nM), MFQ (338 nM), AS (49 nM), and a compound of the invention (2,146 nM). A candle jar was used to mature the parasites at 37.0° C. for 35-56 hours.
(§6) Thick blood films made from each well were stained with 5% Giemsa solution for 30 minutes and examined microscopically. The number of schizonts per 200 asexual stage parasites was determined for each drug concentration and normalised to the control well. The dose-response data were analysed using nonlinear regression analysis (WinNonLn 4.1, Pharsight Corporation) and the IC50 value derived using an inhibitory sigmoid Emax model. […] Drug plate quality was assured by running schizont maturation assays (two independent experiments) with the chloroquine-resistant strain K1 and the chloroquine-sensitive strain FC27.
(§7) For microscopy slide reading QC, two randomly selected drugs per isolate were read by a second microscopist. […] If necessary, discrepant results were resolved by a third reading by an expert microscopist.

[3] = Reactive intermediate trapping with GSH or NAC in liver microsomes; type: in vitro ADME, human, rat; settings: 10 μM, 2 mM GSH or NAC
Method: (§8) Metabolites of Example 13 were identified both in vitro and in vivo using the following models: • In vitro: The compound of Example 13 was incubated with human (HLM) or rat (RLM) liver microsomes (1 mg/ml protein concentration in 100 mM phosphate buffer, pH 7.4) at a final concentration of 10 μM in the presence of 2 mM NADPH. The reactive intermediates were trapped by including 2 mM glutathione (GSH) or N-acetyl cysteine (NAC) in the reaction mix. • In vivo in bile duct cannulated rats: Example 13 was administered intravenously (IV) as a bolus through the jugular vein at a dose of 2 mg/kg or 4 mg/kg of body weight for control (n=3) or BDC rats (n=2), respectively. Blood samples were collected at 0.083, 0.25, 0.5, 1, 2, 4, 6, 8 and 24 h through the carotid artery, bile samples were collected at 0-2 h, 2-4 h, 4-6 h, 6-8 h and 8-24 h intervals and urine samples were collected at 0-8 h and 8-24 h intervals. The bile and urine samples were analyzed for the presence of parent and metabolites and blood samples were analyzed for the presence of parent.

Pf parasites = assay: Pf/SCID model efficacy; type: in vivo, P. falciparum; settings: oral
Method: Blood Cmin (0.04 μM) observed at this dose was considered the minimum parasiticidal concentration (MPC) for the human dose prediction.

[4] = Conversion of Example 13 to the active metabolite in liver microsomes, species comparison; type: in vitro ADME, mouse, rat, human; settings: rank order of species
Method: as §8
These studies supported the fact that the compound of Example 2 is an active metabolite of the compound of Example 13 and is formed both in vitro and in vivo.

P. vivax field isolates = assay: Ex vivo drug susceptibility (schizont maturation) of P. vivax field isolates; type: cell-based; settings: Plasmodium vivax; Plasmodium field isolates, ex vivo; read-out: P. vivax IC50
Method: as §1, §2, §3, §4, §5, §6, §7

parasite = assay: In vitro parasite reduction ratio (PRR) assay; type: cell-based; settings: after 48 hours of exposure
Method: When tested in an in vitro parasite reduction ratio (PRR) assay (Le Manach, et al., 2013, Malar J., […], 424-430), Example 13 produced a >4-log kill after 48 hours of exposure, an effect similar to chloroquine in the same assay.

Cc1nc(Nc2ncc(N3CCN(C)[C@H](C)C3)c(Nc3cc(C)n(C)n3)n2)cc(C2CC2)c1F [Example 13, (R)—N2-(4-cyclopropyl-5-fluoro-6-methylpyridin-2-yl)-N4-(1,5-dimethyl-1H-pyrazol-3-yl)-5-(3,4-dimethylpiperazin-1-yl)pyrimidine-2,4-diamine]
Blood Cmin (minimum parasiticidal concentration, MPC) [1]: 40 nM
IC50 [2]: 74.6 nM
GSH or NAC adduct (reactive metabolite) formation [3]: no GSH or NAC adduct formation
Dose at which maximum kill rate was observed (Pf parasites): 40 mg/kg
Percent conversion to the active metabolite (Example 2) [4]: highest in mouse, followed by rat and then human liver microsomes
IC50 (P. vivax field isolates): 85.6 nM
log kill in parasite reduction ratio (PRR) assay (parasite): > 4 log
